Laboratory results reported in patent publication US10696611B2, “Adamantane derivative compound” (AMOREPACIFIC CORPORATION, priority 2014, dated 2020).
Where two headings read alike, the source gives them in different places.

Columns and labels:
androgen receptor (AR) = target: T1, androgen receptor (AR) (Homo sapiens, UniProt P10275, T878A); experiment: competitive steroid binding assay ([3H] methyltrienolone displacement)
T1 construct: wild type androgen receptor (AR) is obtained by isolating cytoplasm fraction from LNCaP cell line; host or cells: LNCaP cytoplasm fraction
T1 sequence (P10275 1-920 T878A): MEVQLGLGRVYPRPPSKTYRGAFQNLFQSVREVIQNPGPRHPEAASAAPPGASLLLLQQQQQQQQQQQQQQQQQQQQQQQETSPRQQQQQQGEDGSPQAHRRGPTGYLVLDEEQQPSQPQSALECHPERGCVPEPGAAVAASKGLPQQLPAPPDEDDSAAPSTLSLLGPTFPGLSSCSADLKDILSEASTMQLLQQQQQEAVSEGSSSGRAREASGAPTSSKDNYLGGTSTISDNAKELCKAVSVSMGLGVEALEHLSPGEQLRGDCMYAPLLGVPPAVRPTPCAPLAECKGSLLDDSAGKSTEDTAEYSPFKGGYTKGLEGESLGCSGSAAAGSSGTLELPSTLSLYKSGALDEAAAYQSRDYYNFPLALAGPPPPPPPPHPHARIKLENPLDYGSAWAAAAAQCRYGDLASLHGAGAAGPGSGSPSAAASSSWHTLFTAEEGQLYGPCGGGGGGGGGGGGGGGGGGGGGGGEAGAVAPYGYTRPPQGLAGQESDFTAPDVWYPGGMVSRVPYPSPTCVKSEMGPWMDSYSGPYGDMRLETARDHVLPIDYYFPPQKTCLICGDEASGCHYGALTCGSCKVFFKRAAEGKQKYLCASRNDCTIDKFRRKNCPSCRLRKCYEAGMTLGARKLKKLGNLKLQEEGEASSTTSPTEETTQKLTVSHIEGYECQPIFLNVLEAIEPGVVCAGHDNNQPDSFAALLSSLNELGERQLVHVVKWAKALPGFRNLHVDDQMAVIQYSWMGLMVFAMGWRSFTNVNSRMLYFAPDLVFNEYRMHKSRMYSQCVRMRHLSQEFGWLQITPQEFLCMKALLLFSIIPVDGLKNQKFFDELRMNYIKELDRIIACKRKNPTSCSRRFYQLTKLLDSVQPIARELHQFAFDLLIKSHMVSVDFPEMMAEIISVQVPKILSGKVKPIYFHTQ
Description: This assay determines whether or not the adamantane derivative according to the present disclosure is bound to androgen receptor (AR) competitively with methyltrienolone, which is an agonist to androgen receptor.
Such competitive steroid binding assay is carried out by introducing tritium-labeled methyltrienolone as a ligand for androgen receptor, introducing test samples non-labeled with radio isotope thereto at a different concentration, and checking whether or not the test samples are bound to androgen receptor competitively with the ligand, methyltrienolone. In this manner, the test samples are evaluated for their anti-androgenic effects. Herein, the level of the remaining isotope, tritium, is measured to determine whether or not the test samples are bound to androgen receptor competitively with the ligand, methyltrienolone.
Particularly, wild type androgen receptor (AR) is obtained by isolating cytoplasm fraction from LNCaP cell line (ATCC® CRL-1740™). […] The reaction is carried out at 4° C. for 24 hours and the reaction mixture is filtered and washed. Then, radio activity is measured in each ligand bound to the receptor.

[1] = tested on: Rat-derived follicle dermal papilla cells; experiment: growth of dermal papilla cells (MTT); type: cell-based; conditions: 10 μg/ml, 48 hours, MTT absorbance at 570 nm relative to DMSO control (100), read-out: Ratio (%) of growth of dermal papilla cells
Description: Rat-derived follicle dermal papilla cells cultured in Dulbecco's modified Eagle's media (DMEM) containing 2% of fetal bovine serum are dispensed to a 96-well microtiter plate to 1,000 cells/well. As positive control, minoxidil diluted to a concentration of 10 μg/ml is added. Each of the adamantane derivatives according to Examples 1-10 diluted to a concentration of 10 μg/ml is added, followed by culturing at 37° C. for 48 hours. After culturing, 0.2% 3-[4,5-dimethylthiazol-2-yl]-2,5-diphenyltetrazolium bromide (MTT) solution is added to each well in an amount of 50 μl, followed by culturing at 37° C. for 4 hours. Then, the produced formazane is dissolved with dimethyl sulfoxide (DMSO). A microplate reader is used to determine the absorbance of the dissolved formazane at 570 nm. The absorbance is compared with the absorbance of control treated with DMSO solution alone and the ratio (%) of growth of dermal papilla cells is evaluated based on the relative difference.

mice = experiment: effect of stimulating hair growth in dehaired mice; type: in vivo; conditions: 1.0 wt % in water/ethanol/1,3-butylene glycol, 150 μl/day applied on back for 21 days; newly grown hair
Description: To evaluate the adamantane derivatives according to the present disclosure for the effect of stimulating hair growth, each of the adamantane derivatives according to Examples 1-10 is dissolved into a solvent including water/ethanol/1,3-butylene glycol (5/3/2) to a concentration of 1.0 wt %. Next, mice 47-53 days after the birth are dehaired on their backs. Then, mice whose skins on the back portions are clear are selected and grouped by 8 mice per group. Each adamantane derivative having a concentration of 1.0 wt % is applied to each mouse every day in an amount of 150 μl/day for 21 days. After 21 days, newly grown hair is weighed and the weight is compared with negative control.

[2] = tested on: male and female subjects suffering from excessive secretion of sebum; experiment: effect of inhibiting secretion of sebum (Sebumeter SM810); type: in vivo; conditions: nourishing cream including the compound applied every day
Description: The following test is carried out to evaluate the adamantane derivatives according to Examples 1-10 for the effect of inhibiting secretion of sebum. Twenty male and female subjects suffering from excessive secretion of sebum are selected and allowed to apply nourishing cream including each of Examples 1-10 and nourishing cream of negative control every day at a predetermined site for 4 weeks. Then, Sebumeter SM810 (C&K Electronic Co., Germany) is used to determine the average ratio (%) of decrease in sebum after 2 weeks and 4 weeks.

[3] = wild type AR from LNCaP cytoplasm fraction, [3H] methyltrienolone, 4° C. for 24 hours

SMILES	IC50 (androgen receptor (AR)) [nM]	activity at 10 µg/mL [1] [%]	Hair weight (mice) [mg]	Ratio (%) of decrease in sebum After 2 weeks [2] [%]	Ratio (%) of decrease in sebum After 4 weeks [2] [%]	IC50 (androgen receptor (AR); [3]) [nM]
N#Cc1ccc(NC(=O)C23CC4CC(CC(C4)C2)C3)cc1C(F)(F)F [Comp. Ex. 1, Adamantan-1-carboxylic acid-(4-cyano-3-trifluoro-phenyl)amide, reference compound]	11400	114	59 ± 12	16.5	26.2	
Cc1cc(NC(=O)C23CC4CC(CC(C4)C2)C3)ccc1[N+](=O)[O-] [Example 1, Adamantan-1-carboxylic acid-(3-methyl-4-nitrophenyl)-amide]		124	77 ± 11	21.5	35.2	1200
COc1cc(NC(=O)C23CC4CC(CC(C4)C2)C3)ccc1[N+](=O)[O-] [Example 2, Adamantan-1-carboxylic acid-(3-methoxy-4-nitrophenyl)-amide]		124	74 ± 9	19.4	28.8	240
O=C(Nc1ccc([N+](=O)[O-])c(Cl)c1)C12CC3CC(CC(C3)C1)C2 [Example 3, Adamantan-1-carboxylic acid-(3-chloro-4-nitrophenyl)-amide]		118	72 ± 6	18.1	27.6	440
O=C(Nc1ccc([N+](=O)[O-])cc1Cl)C12CC3CC(CC(C3)C1)C2 [Example 4, Adamantan-1-carboxylic acid-(2-chloro-4-nitrophenyl)-amide]		130	75 ± 10	20.7	29.7	1400
COc1cc(NC(=O)C23CC4CC(CC(C4)C2)C3)ccc1C#N [Example 5, Adamantan-1-carboxylic acid-(4-cyano-3-methoxy-phenyl)-amide]		145	71 ± 14	18.7	32.8	2200
N#Cc1ccc(NC(=O)C23CC4CC(CC(C4)C2)C3)c(Cl)c1 [Example 6, Adamantan-1-carboxylic acid-(4-cyano-2-chloro-phenyl)-amide]		124	67 ± 12	17.4	31.4	2400
Cc1cc(C(=O)NC23CC4CC(CC(C4)C2)C3)ccc1[N+](=O)[O-] [Example 7]		123	68 ± 8	18.1	29.8	1900
COc1cc(C(=O)NC23CC4CC(CC(C4)C2)C3)ccc1[N+](=O)[O-] [Example 8]		125	70 ± 14	19.8	33.7	740
COc1cc(NC(=O)C23CC4CC(CC(C4)C2)C3)ccc1F [Example 17, Adamantan-1-carboxylic Acid (4-fluoro-3-methoxyphenyl)amide]						14800
COc1cc(NC(=O)C23CC4CC(CC(C4)C2)C3)ccc1Br [Example 19, Adamantan-1-carboxylic Acid (4-bromo-3-methoxyphenyl)amide]						5300
O=C(Nc1cccc([N+](=O)[O-])c1)C12CC3CC(CC(C3)C1)C2 [Example 23, Adamantan-1-carboxylic Acid (3-nitrophenyl)amide]						13500
COc1cc([N+](=O)[O-])ccc1NC(=O)C12CC3CC(CC(C3)C1)C2 [Example 25, Adamantan-1-carboxylic Acid (2-methoxy-4-nitrophenyl)amide]						1200
Nc1cc(N2CCCCC2)nc(N)[n+]1[O-] [minoxidil, reference compound]		120				
